Data taken from article PMC11404609, “Gut microbiota-mediated C-sulfonate metabolism impairs the bioavailability and anti-cholestatic efficacy of andrographolide” (Gut Microbes, 2024).

Columns and labels:
intestinal flora of mice = test: Co-culturing AP with cecum samples from mice; format: in vitro ADME; conditions: AP 10 μg/mL, anaerobic, 37°C, 6 h
Experimental: (§1) The cecum contents from mice were collected and mixed with sterilized anaerobic medium in a ratio of 1.0 g to 10 mL, with gentle agitation. After filtered, the mixed medium containing the intestinal flora was placed in an anaerobic environment and preincubated at 37°C for 30 min before use. Mixed medium with or without APS reductase inhibitor bromocriptine mesylate (20 μg/mL) was incubated with AP (10 μg/mL), while autoclaved mixed medium without APS reductase inhibitor served as the control. Incubation was performed in a shaking incubator at 37°C for 6 h, with strict maintenance of anaerobic condition throughout the process.[44] Similarly, D. piger (0.2 mL, 1 × 10^8 CFU/mL) with or without inhibitor, was incubated with AP for 0, 3, 6, and 12 h, with autoclaved D. piger without inhibitor serving as the control. The reaction was terminated by adding cold methanol contained IS. And then samples were analyzed by UPLC-MS/MS to detect the concentrations of AP and APM. Concentrations of APS reductase and HSO3^− were also determined at the end of incubation.
For the determination of APS reductase concentration, the supernatant from mouse cecum contents and the D. piger strain were assessed using microorganism APS reductase elisa assay kit (Shanghai Senxingyan Biotechnology Co., Ltd., China), following the instructions provided with the kit. For the determination of HSO3^− concentration, cecum contents from mice or rats were weighed and homogenized in five volumes of normal saline (based on tissue weight). The homogenate was then subjected to centrifugation at 13,000 rpm and 4°C for 15 min. The supernatant (or perfusate) was collected and mixed with 0.2% formaldehyde, 0.05% basic fuchsin, and 0.01% EDTA-Na2 in a ratio of 1:1:1:9 under acidic conditions. To establish a standard curve, different concentrations of NaHSO3 were used. Subsequently, the absorbance of the resulting solutions was measured at a wavelength of 560 nm after 40 min.

D. piger = format: in vitro ADME, Desulfovibrio piger
Experimental: as §1, with “The reaction was terminated by adding cold methanol contained IS.” left out
For the determination of APS reductase concentration, the supernatant from mouse cecum contents and the D. piger strain were assessed using microorganism APS reductase elisa assay kit (Shanghai Senxingyan Biotechnology Co., Ltd., China), following the instructions provided with the kit. […] Subsequently, the absorbance of the resulting solutions was measured at a wavelength of 560 nm after 40 min.

SULTs = test: AP incubation with liver S9 fraction (SULT-mediated metabolism); format: in vitro ADME, human, rat, mouse; conditions: HLS9, RLS9, MLS9 with PAPS, 37°C
Experimental: A sulfonate reaction system and incubation procedures were followed those of a previous study^4. Briefly, the reaction mixture (total volume 200 μL) consists of 10 μL enzymes (MLS9, RLS9 and HLS9 at different concentrations), 5 μL magnesium chloride (1 mM), 5 μL 3’-phosphoadenosine-5’-phosphosulfate (PAPS, 0.05 mM), 178 μL potassium phosphate (KPI) buffer (44.5 mM, pH 7.4) and 2 μL AP at different concentrations. The mixture was prepared in triplicates and incubated in a shaking water bath at 37°C for various durations. The reactions were terminated by the addition of acetonitrile solution.

[1] = Tissue distribution of AP and APM in mice; format: in vivo
Experimental: Control and ABX rats were orally administered a single dose of AP at 120 mg/kg. Control, ABX and germ-free C57BL/6J mice were orally administered a single dose of AP at 100 mg/kg. After 90 min of AP administration, all animals were euthanized, and blood and tissue samples were collected for subsequent analysis.
After 360 min of AP treatment, all mice were euthanized, and tissue samples were collected for subsequent analysis. […]
An ACQUITY^TM UPLC-MS/MS system equipped with an ACQUITY^TM UPLC BEH C18 Column (50 × 2.1 mm I.D., 1.7 μm, Waters, Milford, MA, USA) was utilized for the quantification of AP and APM as previously described.[47] Briefly, the detection samples (50 μL) were mixed with 50 μL of IS (50 ng/mL). AP and APM were extracted by 400 μL cold methanol. Supernatants were dried under nitrogen stream. Then, the residue was dissolved with 50% methanol in water, centrifuged for 30 min at 13,000 rpm, and 10 µL of the supernatant was subjected to UPLC-MS/MS analysis. The mobile phases consisted of eluent A (water) and eluent B (methanol) with a gradient elution as follows: 0–0.8 min, 10% B; 0.8–1.2 min, 10–90% B; 1.2–5.0 min, 90% B; 5.0–5.5 min, 90–10% B; 5.5–7.0 min, 10% B. The flow rate was 0.3 mL/min and the injection volume of all samples was 10 μL. The quantification of AP, APM and IS was performed by UPLC-MS/MS using an MRM method with the transitions of m/z 349.1→m/z 287.2 for AP, m/z 413.2→m/z 287.2 for APM, m/z 269→m/z 133 for IS.
AP was administered intravenously and orally to detect the production of the C-sulfonate metabolite APM. In tissue distribution experiment, rats were given AP intravenously (24 mg/kg) or orally (120 mg/kg), while mice received AP intravenously (20 mg/kg) or orally (100 mg/kg). After a 90-minute interval, the animals were sacrificed, and their liver, kidneys, small intestine, and colon were collected for analysis. In pharmacokinetic studies, rats were administered 24 mg/kg of AP intravenously or 120 mg/kg of AP by oral gavage. Blood samples were collected at predetermined time intervals (0, 5, 10, 20, 30, 40, 60, 90, 120, 180, 240, 360, and 480 min), as described, to detect the content of AP and APM by UPLC-MS/MS.

conversion of AP into APM by the intestinal flora (intestinal flora of mice): notable conversion
production of the metabolite APM in SULT-mediated metabolism incubation system (SULTs): absence of detectable production
concentration of AP in tissues ([1]; ABX-treated mice vs Control, AP 100 mg/kg oral): notably increased
C-sulfonate metabolism of AP ([1]; germ-free mice, AP 100 mg/kg oral): suppressed
AP concentration in tissues such as the liver ([1]; mice colonized with D. piger vs Control, AP 100 mg/kg p.o.): notable reduction
concentration of AP in the intestine and liver ([1]; mice of pharmacological experiment, AP 200 mg/kg, following ABX treatment vs Control): significantly increased
AP levels in mouse tissues ([1]; mice, AP 100 mg/kg p.o., Na2SO4 pre-treatment vs Control): decreased AP levels
AP levels in mouse tissues ([1]; mice, AP 100 mg/kg p.o., bromocriptine mesylate pre-treatment vs Control): elevated AP levels
AP exposure within the small intestine and liver ([1]; mice, AP 200 mg/kg p.o. with APS reductase inhibitor vs without): increase in AP exposure
SMILES: C=C1CC[C@@H]2[C@](C)(CO)[C@H](O)CC[C@@]2(C)[C@@H]1C/C=C1/C(=O)OC[C@H]1O [AP, Andrographolide]
metabolism of AP into APM by D. piger in vitro (D. piger): time-dependent ability to metabolize AP into APM
